Assay results: patent publication US11696914B1 (priority 2019, dated 2023)

Target: Zaire ebolavirus disulfide-linked glycoprotein heterodimer (GP1-GP2) (Zaire ebolavirus, UniProt Q05320)
Test: biochemical
Type: binding

Chain of Zaire ebolavirus disulfide-linked glycoprotein heterodimer (GP1-GP2) (Q05320 33-501 limits assumed): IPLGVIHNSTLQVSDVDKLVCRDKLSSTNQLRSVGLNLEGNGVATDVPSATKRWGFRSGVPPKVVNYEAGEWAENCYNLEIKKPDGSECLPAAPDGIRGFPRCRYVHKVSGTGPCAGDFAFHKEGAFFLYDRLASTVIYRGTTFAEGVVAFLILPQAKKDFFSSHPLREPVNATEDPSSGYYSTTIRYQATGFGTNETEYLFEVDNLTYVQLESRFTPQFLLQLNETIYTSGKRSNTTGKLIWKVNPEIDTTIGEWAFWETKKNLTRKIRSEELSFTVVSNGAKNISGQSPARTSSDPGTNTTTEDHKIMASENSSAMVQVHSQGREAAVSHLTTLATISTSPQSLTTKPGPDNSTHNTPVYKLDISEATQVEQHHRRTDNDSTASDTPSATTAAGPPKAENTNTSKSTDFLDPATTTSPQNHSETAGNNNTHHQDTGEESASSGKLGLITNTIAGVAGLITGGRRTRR
Chain of Zaire ebolavirus disulfide-linked glycoprotein heterodimer (GP1-GP2) (Q05320 502-676 limits assumed): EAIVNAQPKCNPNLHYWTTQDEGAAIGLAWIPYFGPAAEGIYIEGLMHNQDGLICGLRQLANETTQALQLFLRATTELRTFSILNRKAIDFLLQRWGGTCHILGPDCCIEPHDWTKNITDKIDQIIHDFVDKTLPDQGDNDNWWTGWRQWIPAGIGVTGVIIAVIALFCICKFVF

SMILES | binds to EBOV glycoprotein | Kd
C[C@H]1[C@H](OC(=O)CCC(=O)O)O[C@@H]2O[C@@]3(C)CC[C@H]4[C@H](C)CC[C@@H]1[C@@]24OO3 [Artesunate] | did not | –
NC(=O)c1nc(F)c[nH]c1=O [Favipiravir] | did not | –
COc1ccc2nc3cc(Cl)ccc3c(Nc3cc(CN4CCCC4)c(O)c(CN4CCCC4)c3)c2n1 [Pyronaridine, 4-[(7-Chloro-2-methoxybenzo[b][1,5]naph-thyridin-10-yl)amino]-2,6-bis(1-pyrrolidinylmethyl)phenol phosphate (1:4)] | – | 7.34 µM
CCN(CC)CCCC(C)Nc1c2ccc(Cl)cc2nc2ccc(OC)cc12 (centres unmarked) [Quinacrine] | – | 7.55 µM
CCN(CC)CCOc1ccc2c(c1)C(=O)c1cc(OCCN(CC)CC)ccc1-2 [Tilorone] | – | 0.73 µM
